Reference: US8586533B2, “Treatment of early-stage osteoarthritis” (Kaohsiung Medical University, priority 2008, dated 2013)

Columns and labels:
[1] = system: human articular chondrocytes; experiment: TUNEL staining, rate of apoptosis in chondrocyte cultures; type: cell-based; conditions: azaC plus PTH cultures, 10 nM, 14 days of treatment, P<0.01
Description: (§1) Chondrocyte cultures were divided into 4 groups.
We measured apoptotic cells using the TUNEL (terminal deoxy-nucleotidyl transferase mediated dUTP nick end labeling) staining method using the In Situ Cell Death Detection Kit, TMR red (Roche, Mannheim, Germany). Following the manufacturer's guidelines, cells were fixed with 4% paraformaldehyde in phosphate buffered saline (PBS) at a cell density of 1×10^6/ml and incubated at room temperature for 10 minutes, and then settled on a slide by centrifugation at a speed of 2,000 rpm for 5 minutes using a cytospin (Cytospin 3; Shandon, Cheshire, UK). Slides were rinsed twice with PBS, and the cells were permeabilized by incubating in permeabilization solution (0.1% Triton X-100 in 0.1% sodium citrate) for 2 minutes on ice. The TUNEL reaction mixture containing terminal deoxynucleotidyl transferase and rhodamine (the labeling dye) was added to the slides and incubated at 37° C. in a humidified chamber in the dark for 60 minutes. The reaction was stopped by a blocking buffer (0.1% Triton X-100/0.5% bovine serum albumin in PBS). Cells were counterstained by 4′,6-diamidino-2-phenylindole (DAPI). The slides were observed under a fluorescence microscope with an excitation wavelength of 580 nm for rhodamine and 365 nm for DAPI. Cell nuclei were stained blue by DAPI, and only apoptotic cells were stained red by rhodamine. Stained cells were counted in 5 microscopic fields (1.566 mm^2/field) on each slide. Data were analyzed using Image-Pro Plus analysis software (Media Cybernetics, Silver Spring, Md.). The rate of apoptosis in chondrocytes was defined as the ratio of red-stained cells (apoptotic cells) to blue-stained cells (total cells).
By using TUNEL staining, the rate of apoptosis in human articular chondrocyte cultures in the control, azaC, and azaC plus PTH groups were compared after 14 days of PTH(1-34) treatment (for the azaC plus PTH group).

[2] = system: human articular chondrocytes; experiment: Dimethylmethylene blue (DMMB) assay of GAG levels in chondrocyte cultures; type: cell-based; conditions: for GAG levels versus control group: 10 nM
Description: as §1
Alginate beads were dissolved as described above and further digested by papain (300 μg/ml) at 60° C. for 18 hours. The levels of DNA and sulfated glycosaminoglycan (GAG) in the samples were quantified using Hoechst 33258 dye and 1,9-dimethylmethylene blue dye, respectively. A standard curve for the DMMB assay was generated using aqueous chondroitin sulfate C solution (Sigma-Aldrich, St. Louis, Mo.) at concentrations ranging from […].

[3] = system: human articular chondrocytes; experiment: Quantitative real-time PCR of mRNA levels in azaC-induced terminal differentiation culture model; type: cell-based
Description: Chondrocyte cultures were divided into 4 groups. […] Louis, Mo.) for 48 hours.

rat articular cartilage = experiment: Papain-induced OA rat model, TUNEL staining of tibia articular sections; type: in vivo, Sprague-Dawley rats; conditions: OA plus PTH group, 10 nM intraarticular
Description: Fifty-four 12-week-old male Sprague-Dawley rats (250-300 gm) were purchased from BioLASCO Taiwan and housed under standard laboratory conditions (temperature 24° C., 12-hour light-dark cycle) with food and water ad libitum. The animals were acclimatized to the laboratory environment for 1 week before the experiments.
Rats were divided into the following 3 groups: OA (OA induction without PTH [1-34] treatment) (n=18), OA plus PTH (PTH [1-34] treatment followed by OA induction) (n=18), and PTH (PTH [1-34] treatment without OA induction) (n=18). Each left knee, which served as the contralateral control joint, was injected with vehicle without PTH treatment or OA induction. The right knees were the study joints. OA was induced in the right knees of rats in the OA and OA plus PTH groups with intraarticular injections of 20 μl of 4% papain solution and 20 μl of 0.03M cysteine. The injections were given with a 26-gauge needle via the patellar tendon on days 1, 4, and 7 of the experiment (see e.g., Nucl Med Commun (1996) 17(6): 529-35). […]
Apoptotic cells in each section were measured by TUNEL staining using the In Situ Cell Death Detection Kit, TMR red. […] DAPI-stained cells (mean±SEM 150±40) were counted in the center area of the cartilage in tibia plateaus. […]

“PTH (1-34): 34-amino acid long peptide made up of amino-terminal amino acids 1 through 34 of human parathyroid hormone” was tested, and the “rate of apoptosis versus azaC cultures” value [1] was “significantly lower”, the “rate of apoptosis versus control cultures” value [1] was 3.1 fold increase and the “GAG levels versus control group” value ([2]; PTH group (no azaC)) was “not significantly different”. For the same substance, the “GAG levels versus azaC group” value ([2]; azaC plus PTH group, 10 nM, 3, 7, and 10 days, P<0.01) was “significantly higher”, the “GAG levels versus control group” value ([2]; azaC plus PTH group, after 7 and 10 days, P<0.01) was “higher” and the “Col2a1 expression among azaC plus PTH, azaC and control groups” value ([3]; 10 nM, 10 days of treatment) was “no significant difference”. For the same substance, the “Expression of aggrecan, Col2a1, Col10a1, ALP, and IHH genes versus control group” value ([3]; PTH group (no azaC), 10 nM, 3-10 days of treatment) was “not significantly different”, the Bcl-2 expression ([3]; PTH group (no azaC), 10 nM, 3-10 days of treatment, not statistically significant) was 1.7 times that in control and the “azaC-induced changes in levels of mRNA for Col10a1, ALP, and IHH” value ([3]; azaC plus PTH cultures, 10 nM, 3, 7 and 10 days of treatment) was “significantly eliminated”. The “Expression of Col10a1 and ALP versus control cultures” value ([3]; azaC plus PTH cultures, 10 nM, day 3 of treatment, P<0.01) was “lower”, the “Expression of ALP versus control cultures” value ([3]; azaC plus PTH cultures, 10 nM, day 10 of treatment, P<0.05) was “higher” and the “IHH mRNA level, lower than control cultures” value ([3]; azaC plus PTH group, 10 nM, 3-10 days of treatment) was 47-71%. For the same substance, the “aggrecan mRNA level versus azaC group” value ([3]; azaC plus PTH group, 10 nM, 3 and 7 days of treatment (P<0.05, P<0.01)) was “significantly higher”, the “Col2a1 expression versus azaC group” value ([3]; azaC plus PTH group, 10 nM, 3 days of treatment, P<0.05) was “significantly higher” and the “Col2a1 expression versus azaC (P<0.01) or control (P<0.05) group” value ([3]; azaC plus PTH group, 10 nM, 7 days of treatment) was “higher”. The “aggrecan mRNA level versus azaC group” value ([3]; azaC plus PTH group, 10 nM, 10 days of treatment) was “not different”, the Bax expression ([3]; azaC plus PTH group, 10 nM, 14 days) was 1.6 times that in the control cultures and the “ratio of Bcl-2 to Bax versus control group” value ([3]; azaC plus PTH group, 10 nM, after 3 days (P<0.05) and 10 days (P<0.01)) was “higher”. For the same substance, the Bcl-2 expression ([3]; azaC plus PTH group, 10 nM, after 3 days of treatment, P<0.05) was 2.1 times that of control, the Bcl-2 expression ([3]; azaC plus PTH group, 10 nM, after 7 days of treatment, P<0.05) was 2.1 times control and the Bcl-2 expression ([3]; azaC plus PTH group, 10 nM, after 10 days of treatment, P<0.01) was 6.0 times control. The “rate of apoptosis of chondrocytes in study cartilage versus contralateral control cartilage” value (rat articular cartilage) was “no significant difference” and the “rate of apoptosis of chondrocytes in study cartilage versus OA group” value (rat articular cartilage; P<0.01) was “significantly lower”.
